Measured values reported in paper PMC8810880, “Comprehensive characterization and molecular insights into the salt tolerance of a Cu, Zn-superoxide dismutase from an Indian Mangrove, Avicennia marina” (Scientific Reports, 2022).

Target: T1, Am_SOD (recombinant Cu, Zn-superoxide dismutase) (Avicennia marina, UniProt Q9AXH2)
T1 construct: full-length 459 bp ORF in pET22b+ (NdeI/XhoI), 6xHis tag (printed as N-terminal); homodimer ~32-33 kDa, monomer ~16 kDa; no signal peptide found
T1 sequence (Q9AXH2 1-152): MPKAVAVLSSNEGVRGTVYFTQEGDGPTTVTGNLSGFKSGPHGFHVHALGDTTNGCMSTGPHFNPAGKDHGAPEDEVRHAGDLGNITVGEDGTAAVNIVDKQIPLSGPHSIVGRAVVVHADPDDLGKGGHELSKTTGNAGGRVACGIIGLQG
Experiment: riboflavin-NBT SOD inhibition assay, A560
Type: biochemical
Description: riboflavin-NBT SOD inhibition assay, A560 on Am_SOD (recombinant Cu, Zn-superoxide dismutase) | inhibited in a dose-dependent manner by sodium diethyldithiocarbamate trihydrate, and the IC50 was obtained at […]

**Q.** With `CCN(CC)C(=S)S` [DDC, sodium diethyldithiocarbamate trihydrate] as the molecule, how does the IC50 read?
**A.** 1.5 mM
